Patent US9938261B2, “Heterocyclic compounds and methods of use thereof” (AMBIT BIOSCIENCES CORPORATION, priority 2011, dated 2018)
pIC50, pKd: −log10 of the molar value. Like-named read-outs stand apart in the source and are kept apart here.

How the values were obtained:
[1] = target: T1, PDGFRβ (Homo sapiens, UniProt P09619); experiment: Competition binding assay, PDGFRβ Kd
T1 construct: made in house
Procedure, shortened: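 Kd values came from eleven-point threefold dilutions of compound, measured by qPCR of kinase eluted from affinity-ligand beads after 1 h equilibrium binding at room temperature. Kinase was either T7-phage fused or HEK-293-expressed with a DNA tag.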

[2] = test system: M-NFS-60 cells; experiment: M-NFS-60 cell proliferation assay (Alamar Blue); type: cell-based, mouse; conditions: Mus musculus, read-out: CSF1R M-NFS-60 CTB:IC50
Procedure, shortened: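 Alamar Blue reduction (3 h; 560/590 nm) measured viability after 72 h, 37 °C treatment with nine half-log compound concentrations at 0.5% DMSO. Cells: M-CSF-dependent (20 ng/mL) murine M-NFS-60 in RPMI plus 10% FBS. IC50s, averaged from duplicates, reflect half-maximal inhibition of proliferation relative to control.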

[3] = target: CSF1R (Homo sapiens, UniProt P07333); experiment: HEK293 CSF1R phosphorylation MSD assay; type: cell-based; design: expressed in transfected cells; host or cells: HEK293; conditions: read-out: HEK293 pCSF1R M-CSF MSD:IC50
Procedure, shortened: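 Ligand-induced CSF1R autophosphorylation was measured by MSD sandwich assay: CSF1R-FKBP from lysates captured via FK506, anti-phosphotyrosine readout. Cells were exposed to compound for 2 h (9-point, half-log, 0.5% DMSO) before 5 min 50 ng/mL M-CSF. Reported IC50 is the mean of duplicate-plate IC50s relative to DMSO control.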

[4] = 72 hours incubation, M-CSF 20 ng/mL
[5] = 2 h compound, human M-CSF 50 ng/mL for 5 min
[6] = HEK293 cells, M-CSF stimulated CSF1R phosphorylation, MSD

Chain of CSF1R (P07333 20-972): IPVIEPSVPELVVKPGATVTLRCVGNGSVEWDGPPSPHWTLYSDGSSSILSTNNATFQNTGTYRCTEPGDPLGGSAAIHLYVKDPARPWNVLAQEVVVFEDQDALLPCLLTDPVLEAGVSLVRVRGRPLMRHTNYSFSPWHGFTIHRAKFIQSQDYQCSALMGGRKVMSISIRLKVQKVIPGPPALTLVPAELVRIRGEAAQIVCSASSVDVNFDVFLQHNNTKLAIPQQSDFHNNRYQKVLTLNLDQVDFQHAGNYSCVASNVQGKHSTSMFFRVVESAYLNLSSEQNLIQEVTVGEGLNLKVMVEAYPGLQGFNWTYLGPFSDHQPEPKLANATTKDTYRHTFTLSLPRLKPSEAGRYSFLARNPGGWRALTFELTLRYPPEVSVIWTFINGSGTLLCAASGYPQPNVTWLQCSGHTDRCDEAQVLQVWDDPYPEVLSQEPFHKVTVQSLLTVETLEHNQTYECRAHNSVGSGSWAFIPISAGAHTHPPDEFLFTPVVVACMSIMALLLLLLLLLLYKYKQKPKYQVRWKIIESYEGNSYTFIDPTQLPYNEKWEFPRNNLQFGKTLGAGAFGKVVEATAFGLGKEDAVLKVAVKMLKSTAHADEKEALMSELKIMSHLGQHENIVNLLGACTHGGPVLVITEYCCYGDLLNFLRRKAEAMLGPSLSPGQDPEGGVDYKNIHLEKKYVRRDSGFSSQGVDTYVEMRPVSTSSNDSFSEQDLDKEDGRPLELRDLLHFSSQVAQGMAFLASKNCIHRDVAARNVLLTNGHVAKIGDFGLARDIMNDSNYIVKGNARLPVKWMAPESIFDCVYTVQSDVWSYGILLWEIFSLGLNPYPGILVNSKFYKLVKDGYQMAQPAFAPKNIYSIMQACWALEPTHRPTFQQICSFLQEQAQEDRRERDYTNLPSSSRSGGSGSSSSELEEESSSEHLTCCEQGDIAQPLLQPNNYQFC
T1 sequence (P09619 33-1106): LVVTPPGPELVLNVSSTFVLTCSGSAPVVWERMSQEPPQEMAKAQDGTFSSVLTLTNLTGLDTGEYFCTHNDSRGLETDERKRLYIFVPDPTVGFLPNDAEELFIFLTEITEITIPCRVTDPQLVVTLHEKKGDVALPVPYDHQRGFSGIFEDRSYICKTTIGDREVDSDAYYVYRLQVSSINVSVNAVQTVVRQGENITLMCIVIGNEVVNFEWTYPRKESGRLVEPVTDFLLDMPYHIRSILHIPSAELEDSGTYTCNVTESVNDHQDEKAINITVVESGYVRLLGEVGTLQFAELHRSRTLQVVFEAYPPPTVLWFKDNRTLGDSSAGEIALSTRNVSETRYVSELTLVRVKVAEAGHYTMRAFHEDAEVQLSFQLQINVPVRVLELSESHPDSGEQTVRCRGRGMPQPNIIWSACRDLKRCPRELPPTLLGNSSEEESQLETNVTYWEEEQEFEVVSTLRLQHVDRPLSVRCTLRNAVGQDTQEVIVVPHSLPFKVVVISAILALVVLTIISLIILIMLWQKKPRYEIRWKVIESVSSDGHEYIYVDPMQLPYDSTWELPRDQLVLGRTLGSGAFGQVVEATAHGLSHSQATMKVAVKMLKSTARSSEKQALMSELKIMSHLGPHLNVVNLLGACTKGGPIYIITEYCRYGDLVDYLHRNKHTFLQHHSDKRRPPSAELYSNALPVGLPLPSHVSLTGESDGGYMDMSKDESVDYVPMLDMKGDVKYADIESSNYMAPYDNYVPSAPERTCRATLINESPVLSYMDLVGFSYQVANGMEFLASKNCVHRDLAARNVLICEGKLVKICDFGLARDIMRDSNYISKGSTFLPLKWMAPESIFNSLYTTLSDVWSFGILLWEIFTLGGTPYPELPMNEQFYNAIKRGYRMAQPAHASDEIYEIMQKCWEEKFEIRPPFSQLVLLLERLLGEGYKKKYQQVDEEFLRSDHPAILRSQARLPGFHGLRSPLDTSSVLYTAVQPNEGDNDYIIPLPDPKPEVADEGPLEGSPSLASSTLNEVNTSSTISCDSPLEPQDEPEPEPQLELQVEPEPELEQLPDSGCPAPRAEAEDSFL

Structure (SMILES) | pKd [1] | pIC50 [2, 4] | pIC50 [3, 5] | pKd ([1]; competition binding) | pIC50 ([2]; M-NFS-60 cell proliferation) | pIC50 [3, 6]
COc1cc2ncn(Cc3ccc4nc(N[C@@H]5CCCCC[C@H]5O)sc4c3)c2cc1OC (racemic) [Example 50, (±)-2-((6-((5,6-dimethoxy-1H-benzo[d]imidazol-1-yl)methyl)benzo[d]thiazol-2-yl)amino)cycloheptanol] | ≥ 7.30 | ≥ 7.30 | ≥ 7.30 | – | – | –
O[C@@H]1CCCC[C@H]1Nc1nc2ccc(Cn3cnc4cc(Br)cc(F)c43)cc2s1 [Example 203, (1R,2R)-2-((6-((5-bromo-7-fluoro-1H-benzo[d]imidazol-1-yl)methyl)benzo[d]thiazol-2-yl)amino)cyclohexanol] | – | – | – | 6.30 to 7.30 | 6.40 to 7.30 | 6.70 to 7.30
C=Cc1cnc2c(c1)ncn2Cc1ccc2nc(N[C@@H]3CCCC[C@H]3O)sc2c1 [Example 98, (1R,2R)-2-((6-((6-vinyl-3H-imidazo[4,5-b]pyridin-3-yl)methyl)benzo[d]thiazol-2-yl)amino)cyclohexanol] | ≥ 7.30 | ≥ 7.30 | ≥ 7.30 | – | – | –
OC1(CNc2nc3ccc(Cn4cnc5cccnc54)cc3s2)CCCCC1 [Example 75, 1-(((6-((3H-imidazo[4,5-b]pyridin-3-yl)methyl)benzo[d]thiazol-2-yl)amino)methyl)cyclohexanol] | ≥ 7.30 | 6.40 to 7.30 | 6.70 to 7.30 | – | – | –
O[C@@H]1CCCC[C@H]1Nc1nc2ccc(Cn3cnc4cc(-c5cc[nH]n5)ccc43)cc2s1 [Example 211, (1R,2R)-2-((6-((5-(1H-pyrazol-3-yl)-1H-benzo[d]imidazol-1-yl)methyl)benzo[d]thiazol-2-yl)amino)cyclohexanol] | – | – | – | ≥ 7.30 | ≥ 7.30 | ≥ 7.30
O=C1CCCCN1c1ccc2c(c1)ncn2Cc1ccc2nc(N[C@@H]3CCCC[C@H]3O)sc2c1 [Example 210, 1-(1-((2-(((1R,2R)-2-hydroxycyclohexyl)amino)benzo[d]thiazol-6-yl)methyl)-1H-benzo[d]imidazol-5-yl)piperidin-2-one] | – | – | – | 5.70 to 6.30 | < 5.82 | 6.30 to 6.70
O[C@@H]1CCCC[C@H]1Nc1nc2ccc(Cn3cnc4cc(CN5CCOCC5)cnc43)cc2s1 [Example 82, (1R,2R)-2-((6-((6-(morpholinomethyl)-3H-imidazo[4,5-b]pyridin-3-yl)methyl)benzo[d]thiazol-2-yl)amino)cyclohexanol] | 6.30 to 7.30 | 5.82 to 6.40 | 6.30 to 6.70 | – | – | –
CC(O)c1ccn2c(Cc3ccc4nc(N[C@@H]5CCCC[C@H]5O)sc4c3)cnc2c1 (stereo partly drawn) [Example 201, (1R,2R)-2-((6-((7-(1-hydroxyethyl)imidazo[1,2-a]pyridin-3-yl)methyl)benzo[d]thiazol-2-yl)amino)cyclohexanol] | – | – | – | 5.70 to 6.30 | < 5.82 | 6.30 to 6.70
Cn1cc(-c2cnc3c(c2)ncn3Cc2ccc3nc(N[C@@H]4CCCC[C@H]4O)sc3c2)cn1 [Example 39, (1R,2R)-2-((6-((6-(1-methyl-1H-pyrazol-4-yl)-3H-imidazo[4,5-b]pyridin-3-yl)methyl)benzo[d]thiazol-2-yl)amino)cyclohexanol] | ≥ 7.30 | ≥ 7.30 | ≥ 7.30 | – | – | –
CC(=O)c1cnc2c(c1)ncn2Cc1ccc2nc(N[C@@H]3CCCC[C@H]3O)sc2c1 [Example 73, 1-(3-((2-(((1R,2R)-2-hydroxycyclohexyl)amino)benzo[d]thiazol-6-yl)methyl)-3H-imidazo[4,5-b]pyridin-6-yl)ethanone] | ≥ 7.30 | 6.40 to 7.30 | ≥ 7.30 | – | – | –
COc1cc2c(cc1Br)ncn2Cc1ccc2nc(N[C@@H]3CCCC[C@H]3O)sc2c1 [Example 41, (1R,2R)-2-((6-((5-bromo-6-methoxy-1H-benzo[d]imidazol-1-yl)methyl)benzo[d]thiazol-2-yl)amino)cyclohexanol] | 5.70 to 6.30 | 6.40 to 7.30 | 6.70 to 7.30 | – | – | –
COc1cc2ncn(Cc3ccc4nc(N[C@@H]5CCCC[C@H]5O)sc4c3)c2cc1-c1cnn(C)c1 [Example 52, (1R,2R)-2-((6-((5-methoxy-6-(1-methyl-1H-pyrazol-4-yl)-1H-benzo[d]imidazol-1-yl)methyl)benzo[d]thiazol-2-yl)amino)cyclohexanol] | 6.30 to 7.30 | 6.40 to 7.30 | ≥ 7.30 | – | – | –
O=C(O)c1cnc2c(c1)ncn2Cc1ccc2nc(N[C@@H]3CCCC[C@H]3O)sc2c1 [Example 81, 3-((2-(((1R,2R)-2-hydroxycyclohexyl)amino)benzo[d]thiazol-6-yl)methyl)-3H-imidazo[4,5-b]pyridine-6-carboxylic acid] | 6.30 to 7.30 | < 5.82 | < 6.30 | – | – | –
COc1cc2ncn(Cc3ccc4nc(NCC5CCCCC5)oc4c3)c2cc1OC [Example 35, N-(cyclohexylmethyl)-6-((5,6-dimethoxy-1H-benzo[d]imidazol-1-yl)methyl)benzo[d]oxazol-2-amine] | ≥ 7.30 | 6.40 to 7.30 | ≥ 7.30 | – | – | –
C=CCOc1ccn2c(Cc3ccc4nc(N[C@@H]5CCCC[C@H]5O)sc4c3)cnc2c1 [Example 217, (1R,2R)-2-((6-((7-(allyloxy)imidazo[1,2-a]pyridin-3-yl)methyl)benzo[d]thiazol-2-yl)amino)cyclohexanol] | – | – | – | 6.30 to 7.30 | 6.40 to 7.30 | 6.70 to 7.30
O[C@@H]1CCCC[C@H]1Nc1nc2ccc(Cc3cnc4cc(-n5ccnc5)ccn34)cc2s1 [Example 214, (1R,2R)-2-((6-((7-(1H-imidazol-1-yl)imidazo[1,2-a]pyridin-3-yl)methyl)benzo[d]thiazol-2-yl)amino)cyclohexanol] | – | – | – | 6.30 to 7.30 | 6.40 to 7.30 | ≥ 7.30
CON=C(C)c1ccn2c(Cc3ccc4nc(N[C@@H]5CCCC[C@H]5O)sc4c3)cnc2c1 [Example 204, 1-(3-((2-(((1R,2R)-2-hydroxycyclohexyl)amino)benzo[d]thiazol-6-yl)methyl)imidazo[1,2-a]pyridin-7-yl)ethanone O-methyl oxime] | – | – | – | 6.30 to 7.30 | 6.40 to 7.30 | 6.70 to 7.30
O[C@@H]1CCCC[C@H]1Nc1nc2ccc(Cc3cnc4cc(-n5ccnn5)ccn34)cc2s1 [Example 218, (1R,2R)-2-((6-((7-(1H-1,2,3-triazol-1-yl)imidazo[1,2-a]pyridin-3-yl)methyl)benzo[d]thiazol-2-yl)amino)cyclohexanol] | – | – | – | 6.30 to 7.30 | 6.40 to 7.30 | ≥ 7.30
COc1cc2c(cc1-c1cnn(C)c1)ncn2Cc1ccc2nc(N[C@@H]3CCCC[C@H]3O)sc2c1 [Example 51, (1R,2R)-2-((6-((6-methoxy-5-(1-methyl-1H-pyrazol-4-yl)-1H-benzo[d]imidazol-1-yl)methyl)benzo[d]thiazol-2-yl)amino)cyclohexanol] | ≥ 7.30 | ≥ 7.30 | ≥ 7.30 | – | – | –
O[C@@H]1Cc2ccccc2[C@H]1Nc1nc2ccc(Cn3cnc4cccnc43)cc2s1 [Example 46, (1R,2R)-1-((6-((3H-imidazo[4,5-b]pyridin-3-yl)methyl)benzo[d]thiazol-2-yl)amino)-2,3-dihydro-1H-inden-2-ol] | ≥ 7.30 | 6.40 to 7.30 | 6.70 to 7.30 | – | – | –
COc1cc2ncn(Cc3ccc4nc(N[C@@H](C)C5CCCCC5)sc4c3)c2cc1OC [Example 33, (S)—N-(1-cyclohexylethyl)-6-((5,6-dimethoxy-1H-benzo[d]imidazol-1-yl)methyl)benzo[d]thiazol-2-amine] | ≥ 7.30 | 6.40 to 7.30 | 6.70 to 7.30 | – | – | –
CC(=NO)c1ccn2c(Cc3ccc4nc(N[C@@H]5CCCC[C@H]5O)sc4c3)cnc2c1 [Example 202, 1-(3-((2-(((1R,2R)-2-hydroxycyclohexyl)amino)benzo[d]thiazol-6-yl)methyl)imidazo[1,2-a]pyridin-7-yl)ethanone oxime] | – | – | – | 6.30 to 7.30 | 6.40 to 7.30 | 6.70 to 7.30
OC[C@@H](Nc1nc2ccc(Cn3cnc4cccnc43)cc2s1)C1CCCCC1 [Example 63, (S)-2-((6-((3H-imidazo[4,5-b]pyridin-3-yl)methyl)benzo[d]thiazol-2-yl)amino)-2-cyclohexylethanol] | ≥ 7.30 | 6.40 to 7.30 | 6.70 to 7.30 | – | – | –
O[C@@H]1CCCC[C@H]1Nc1nc2ccc(Cn3cnc4cc(Cl)cnc43)cc2s1 [Example 55, (1R,2R)-2-((6-((6-chloro-3H-imidazo[4,5-b]pyridin-3-yl)methyl)benzo[d]thiazol-2-yl)amino)cyclohexanol] | ≥ 7.30 | ≥ 7.30 | ≥ 7.30 | – | – | –
CC(=O)Nc1cn(Cc2ccc3nc(N[C@@H]4CCCC[C@H]4O)sc3c2)cn1 [Example 101, N-(1-((2-(((1R,2R)-2-hydroxycyclohexyl)amino)benzo[d]thiazol-6-yl)methyl)-1H-imidazol-4-yl)acetamide] | 6.30 to 7.30 | 6.40 to 7.30 | 6.70 to 7.30 | – | – | –
OC[C@@H]1CCCC[C@H]1Nc1nc2ccc(Cn3cnc4cccnc43)cc2s1 [Example 66, ((1R,2R)-2-((6-((3H-imidazo[4,5-b]pyridin-3-yl)methyl)benzo[d]thiazol-2-yl)amino)cyclohexyl)methanol] | 6.30 to 7.30 | 5.82 to 6.40 | 6.70 to 7.30 | – | – | –
